# Counter-ions that a name gives are not always drawn. Like-named read-outs stand apart in the source and are kept apart here.
# Legend:
# Format in all cases: physicochemical
# [1] = Solubility of polymorphs (aqueous intrinsic / aqueous equilibrium solubility)
# [2] = Hygroscopicity / water uptake and loss at relative humidity (VTI)
# [3] = Thermal water loss and degradation (TGA/DTA, DSC, fusion microscopy)
# [4] = Ambient polymorph screen with wet solvents (slurry conversion, relative form stability); settings: for Polymorph Isolated: starting Form I, ambient
smiles,measurement,setting,value
"COc1ccc(C(C)C)cc1CN[C@H]1C2CCN(CC2)[C@H]1C(c1ccccc1)c1ccccc1 [Form II, (2-Benzhydryl-1-azo-bicyclo 2,2,2oct-3-yl)-(5-isoproyl-2-methoxybenzyl)-amine]",Aqueous Equilibrium,[1]; aqueous,395 mg/mL
same,Aqueous Intrinsic Solubility,"[1]; aqueous, intrinsic",< 329 mg/mL
same,solubility,[1]; medium not stated,390-400 milligrams per milliliter
same,VTI (% H2 O absorbed),[2],0.4 % wt.
same,TGA/DTA degradation temperature,[3],178 °C
same,Fusion Microscopy water loss (in words),[3]; fusion microscopy,Sharp water loss
same,Fusion Microscopy water loss temperature,[3]; fusion microscopy,~ 100 °C
same,relative stability of the polymorph,[4]; compared with Form I,"lower energy, more stable form than Form I"
"COc1ccc(C(C)C)cc1CN[C@H]1C2CCN(CC2)[C@H]1C(c1ccccc1)c1ccccc1 [Form I, (2-Benzhydryl-1-azo-bicyclo 2,2,2oct-3-yl)-(5-isoproyl-2-methoxybenzyl)-amine]",Aqueous Equilibrium,[1]; aqueous,> 1155 mg/mL
same,solubility in wet THF (in words),[1]; slurried in THF with >5% H2 O,solubility increases dramatically
same,solubility,"[1]; water, aqueous, intrinsic, read-out: Aqueous Intrinsic Solubility",> 648 mg/mL
same,hygroscopicity (in words),[2],nonhydroscopic
same,VTI (% H2 O absorbed),[2],0.8 % wt.
same,DSC degradation temperature,[3]; DSC,~ 230 °C
same,DSC water loss (in words),[3]; DSC,undetected
same,TGA/DTA degradation temperature,[3],194 °C
same,Fusion Microscopy water loss (in words),[3]; fusion microscopy,Slow water loss
same,conversion to Form II in slurry,[4]; THF with about 3% to 5% H2 O,the conversion is to Form II
same,conversion to Form II in slurry,[4]; THF with less than 2% H2 O,no conversion to Form II
same,Polymorph Isolated,"[4]; Acetone/5% H2 O, slurry",Form II
same,Polymorph Isolated,"[4]; Acetonitrile/5% H2 O, slurry",Form I
same,Polymorph Isolated,"[4]; Ethyl Acetate/3.5% H2 O, slurry",Form II
same,Polymorph Isolated,"[4]; H2 O, solutions seeded with Form II",Form II
same,Polymorph Isolated,"[4]; IPO/5% H2 O, slurry",Form I
same,Polymorph Isolated,"[4]; Tetrahydrofuran/5% H2 O, slurry",Form II
"COc1ccc(C(C)C)cc1CN[C@H]1C2CCN(CC2)[C@H]1C(c1ccccc1)c1ccccc1 [anhydrous dihydrochloride, anhydrous dihydrochloride of (2-Benzhydryl-1-azo-bicyclo 2,2,2oct-3-yl)-(5-isoproyl-2-methoxybenzyl)-amine]",hygroscopicity (in words),[2],hygroscopic
same,hygroscopicity (humidity at which hygroscopic and forms dihydrates),[2]; about 52% humidity or greater,≥ 52%
